US9499493B2, “2,4-pyrimidinediamine compounds and their uses” (Rigel Pharmaceuticals, Inc., priority 2002, dated 2016)
Read-outs that look alike come from different tables or passages of the source.

How the values were obtained:
BMMC cells = test: Phosphorylation of proteins downstream of Syk kinase in the IgE receptor cascade, activated BMMC cells; assay type: cell-based, mouse; conditions: varying concentrations, FIG. 7
CHMC cells [1] = test: Phosphorylation of proteins downstream of Syk / LYN kinase in the FcεRI cascade, activated CHMC cells; assay type: cell-based, human; conditions: varying concentrations, FIG. 10
[2] = Immediacy (time course) of inhibitory activity; assay type: cell-based; conditions: FIG. 5
[3] = tested on: FcγRI-mediated degranulation; test: FcγRI receptor-mediated degranulation (activation with anti-human IgG Fab fragment); assay type: cell-based; conditions: cells not primed with IgE, activated with rabbit anti-human IgG Fab fragment
CHMC cells [4] = test: anti-IgE-induced calcium ion flux in CHMC cells; assay type: cell-based, human; conditions: 10 μM compound
CHMC cells [5] = test: ionomycin-induced calcium ion flux in CHMC cells; assay type: cell-based, human; conditions: 10 μM compound
[6] = 14-day repeat-dose intranasal toxicity study in Cynomolgus monkeys; assay type: in vivo
Protocol: A 14-day repeat-dose intranasal toxicity study in Cynomolgus monkeys was performed at doses of 2.1, 4.5 or 6.3 mg/kg/day. In life parameters included: clinical observations, body weights, food consumption, ophthalmology, blood pressure, electrocardiography, hematology, clinical chemistry, urinalysis, immunotoxicological assessment, gross necropsy, organ weights, toxicokinetic assessments and histopathology (including the nasal cavity).

[7] = 14-day repeat-dose intranasal toxicity study in New Zealand White rabbits; assay type: in vivo
Protocol: A 14-day repeat-dose intranasal toxicity study in New Zealand White rabbits was performed at doses of 1.7, 3.4 or 5.0 mg/kg/day. In life parameters included: clinical observations, body weights, food consumption, ophthalmology, hematology, clinical chemistry, gross necropsy, organ weights, toxicokinetic assessments and histopathology (including the nasal cavity).

[8] = 14-day repeat-dose toxicity studies (summary of non-clinical safety program); assay type: in vivo, rabbits and primates; mice and rats
Description: (§1) A short discussion of key toxicology studies is provided.

[9] = Core safety pharmacology battery (cardiovascular, respiratory, central nervous system function); conditions: in vivo
Description: as §1

[10] = Genetic toxicology testing
Description: as §1

[11] = Exposure to skin and eyes; conditions: in vivo
Description: as §1

[12] = tested on: IgE-induced degranulation of tissue mast cells; test: Mouse model of passive cutaneous anaphylaxis (PCA); assay type: in vivo; conditions: for % Inhibition (PCA) / Plasma level: PO
Protocol: (§2) This model provides a direct measure of IgE-induced degranulation of tissue mast cells. In this model, IgE primed animals are exposed to an allergen challenge, and the change in permeability of dermal vasculature that results from histamine release from mast cells is measured by change in the amount of dye leakage into surrounding tissue. Inhibition of mediator release by compounds that modulate mast cell degranulation is easily measured by extracting the dye from the tissue.
(§3) In the PCA assay mice are passively sensitized by intradermal injection with anti-dinitrophenol (DNP) IgE antibodies (Day −1). At predetermined times animals are treated with the test agent (Day 0). The modulatory effect of the agent on cutaneous mast cell degranulation is measured following intravenous injection of DNP conjugated to human serum albumin (HSA-DNP), together with Evans blue dye. The resulting cross-linking of the IgE receptor and subsequent mast cell degranulation-induced increase in vascular permeability is determined by measuring the amount of dye extravasation into the tissue. Dye is extracted from the tissue by formamide, and the absorbance of this extract is read at 620 nm.

[13] = Sheep model of allergic asthma (Ascaris suum challenge); assay type: in vivo
Protocol: Sheep develop bronchoconstriction within minutes of exposure to inhaled antigen (Ascaris suum), with maximal airflow obstruction during the early allergic response (EAR). Release of preformed mast cell mediators is likely responsible for this early phase of airflow obstruction. […] In the sheep, AHR develops a few hours following antigen challenge, and can persist for up to 2 weeks.
In the sheep model of allergic asthma, sheep are administered aerosols of test article via an endotracheal tube, followed by an aerosol challenge with antigen extracted from the roundworm, Ascaris suum, to which the sheep are naturally allergic. Allergen challenge leads to direct bronchoconstriction (both EAR and LAR) and a persistent non-specific AHR. These three characteristics are similar to those seen in human allergic asthmatics. The activity of the test agent is determined by changes in the lung resistance (RL), which is calculated from measurements of transpulmonary pressure, flow, and respiratory volume. […] The LAR is a less pronounced increase in RL, which starts approximately 5-6 hours following allergen challenge and is resolved by 8 hours post-challenge. Twenty-four hours after the challenge, a dose response to carbachol is measured to determine the AHR, which is expressed as the dose of carbachol required to increase RL by 400% over baseline. (This measurement is referred to as the provocative concentration of carbachol that elicits a 400% increase in RL over baseline (PC400). The data are compared to historical control data for the same individual when administered a saline control aerosol and challenged with Ascaris suum.

Syk kinase = Syk kinase (Homo sapiens (Human), UniProt P43405); test: Isolated Syk kinase: phosphorylation of a peptide substrate or endogenous substrate (LAT); conditions: increasing concentrations; FIG. 8
[14] = in vitro chromosomal aberration assay
[15] = assay type: in vivo; conditions: rat, 50, 150 and 300 mg/kg
[16] = Pharmacokinetics / oral bioavailability in rats; assay type: in vivo; conditions: rat, in vivo
Protocol: Over 50 2,4-pyrimidinediamine compounds of the invention were tested for oral bioavailability. For the study, compounds were dissolved in various vehicles (e.g. PEG 400 solution and CMC suspension) for intravenous and oral dosing in the rats. Following administration of the drug, plasma samples were obtained and extracted. The plasma concentrations of the compounds were determined by high performance liquid chromatography/tandem mass spectrometry (LC/MS/MS) methods. Pharmacokinetic analyses were performed based on the plasma concentration data. The pharmacokinetic parameters of interest include Clearance (CL), Volume of distribution at steady-state (Vss), terminal half-life (t1/2), and oral bioavailability (% F).

[17] = Mouse model of passive cutaneous anaphylaxis (PCA); assay type: in vivo; conditions: mouse, plasma, PO, 1.5% Avicel/water, 200 mg/kg, read-out: Plasma level (duration of action)
Protocol: as §2, §3

[18] = mouse, in vivo
in vivo = conditions: mouse, po
[19] = tested on: Salmonella-Escherichia coli tester strains; conditions: Salmonella / Escherichia coli
[20] = 67% PEG/33% citrate buffer, pretreatment 10 min, 50 mg/kg
[21] = 67% PEG/33% citrate buffer, pretreatment 10 min, 100 mg/kg
[22] = 67% PEG/33% citrate buffer, pretreatment 10 min, 200 mg/kg
[23] = 30 mg/sheep, pretreatment 15 min, 10% ethanol

In the case of `Oc1cccc(Nc2ncc(F)c(Nc3cccc(O)c3)n2)c1` [R921218, N2,N4-Bis(3-hydroxyphenyl)-5-fluoro-2,4-pyrimidinediamine], the “phosphorylation of various proteins downstream of Syk kinase” value (BMMC cells) is reported as “inhibit”, the “phosphorylation of proteins downstream of Syk kinase” value (CHMC cells [1]) is reported as “inhibit” and the “onset of inhibitory activity” value [2] is reported as “immediacy of the inhibitory activity”. The “FcγRI-mediated degranulation (in words)” value [3] was “inhibit FcγRI-mediated degranulation”, the “anti-IgE-induced Ca2+ flux” value (CHMC cells [4]) was “inhibited” and the “ionomycin-induced Ca2+ flux” value (CHMC cells [5]) was “no effect”. For the same compound, the NOAEL at 14 days ([6]; cynomolgus monkey, in vivo, inhaled or intranasal, intranasal, Cynomolgus monkeys, read-out: NOAEL (no observed adverse effect level)) was 6.3 mg/kg/day, the adverse findings ([6]; intranasal 2.1, 4.5 or 6.3 mg/kg/day) was “no adverse findings” and the adverse findings ([7]; intranasal 1.7, 3.4 or 5.0 mg/kg/day) was “no adverse findings”. For the same compound, the NOAEL at 14 days ([7]; rabbit, in vivo, inhaled or intranasal, intranasal, New Zealand White rabbits, read-out: NOAEL (no observed adverse effect level)) was 5 mg/kg/day, the “dose limiting toxicity, intranasal route, non-rodents (rabbits and primates)” value [8] was “no dose limiting toxicity” and the “dose limiting toxicity, oral route, rodents (mice and rats)” value [8] was “no dose limiting toxicity”. The “findings in core safety pharmacology battery” value [9] was “no adverse findings”, the “mutagenic or clastogenic potential” value [10] was “no evidence for mutagenic or clastogenic potential” and the “effects after exposure to skin and eyes” value [11] was “nor were there untoward effects”. For the same compound, the “% Inhibition (PCA)” value [12, 20] was 7%, the Plasma level [12, 20] was 3 µg/mL and the “% Inhibition (PCA)” value [12, 21] was 11%. The Plasma level [12, 21] was 4 µg/mL, the “% Inhibition (PCA)” value [12, 22] was 50% and the Plasma level [12, 22] was 18 µg/mL. The “FcεR-mediated vascular leakage with increasing doses (in words)” value ([12]; solution (67% PEG/33% citrate buffer) or aqueous suspension (1.5% Avicel)) was “dose-dependent inhibition”, the “AHR (% inhibition)” value [13, 23] was 101% and the “EAR (% inhibition)” value [13, 23] was 66%. The “LAR (% inhibition)” value [13, 23] was 78%, the “EAR (in words)” value ([13]; aqueous suspension) was “failed to inhibit” and the “Syk kinase phosphorylation of a peptide substrate” value (Syk kinase) was “dose responsive inhibition”. The “Syk kinase phosphorylation of an endogenous substrate (LAT)” value (Syk kinase) was “dose responsive inhibition”.
With `Nc1cccc(Nc2ncc(F)c(Nc3cccc(N)c3)n2)c1` [R921302, N2,N4-Bis(3-aminophenyl)-5-fluoro-2,4-pyrimidinediamine] the “FcγRI-mediated degranulation (in words)” value [3] was “inhibit FcγRI-mediated degranulation”, the clastogenic potential [14] was “not clastogenic” and the “tolerability, oral doses for 32 days” value [15] was “appeared to be well tolerated”. The “metabolic stability in pharmacokinetics studies (in words)” value [16] was “most metabolically stable compound”, the concentration at 30 min ([17]; pretreatment 30 min) was 88 µg/mL and the concentration at 60 min ([17]; pretreatment 60 min) was 53 µg/mL. It also gave a concentration at 120 min ([17]; pretreatment 120 min) of 61 µg/mL, a concentration at 240 min ([17]; pretreatment 240 min) of 8 µg/mL and a Plasma level ([12]; 1.5% Avicel/water, pretreatment 60 min, 50 mg/kg) of 25 µg/mL. It also gave a Plasma level ([12]; 1.5% Avicel/water, pretreatment 60 min, 100 mg/kg) of 38 µg/mL, a Plasma level ([12]; 1.5% Avicel/water, pretreatment 60 min, 150 mg/kg) of 64 µg/mL and a Plasma level ([12]; 1.5% Avicel/water, pretreatment 60 min, 200 mg/kg) of 105 µg/mL. The “time prior to antigen-induced receptor signaling over which vascular permeability was inhibited before efficacy began to decrease” value ([12]; mouse, in vivo) was 1 to 2 h, the “oral dose tolerated for up to 7-days” value [18] was 1000 mg/kg and the “tolerability, 28-day oral toxicity study” value ([18]; 100 mg/kg) was “appeared to be well tolerated”. The “tolerability, 28-day oral toxicity study” value ([18]; 300 mg/kg) was “not tolerated”, the NOAEL at 14 days (in vivo) was 100 mg/kg and the Ames test result [19] was “test positive in tester strain TA98 with S9 and TA1537, with and without metabolic activation”.
